What is called Ki is a dissociation constant, usually derived from enzyme kinetics or from competition with a known ligand.

The target of this assay is rat MCH-1 (Rattus norvegicus, UniProt P97639). In words: Radioligand binding assay at cloned rat MCH1 receptor ([3H] Compound A). Details: host or cells: Peak rapid 293 (Peakr293) cells, transient calcium phosphate transfection, membranes. The settings on record: cloned rat MCH1 receptor; 0.08 nM [3H] Compound A; Peakr293 cell membranes; read-out: Ki (nM) rMCH1.
rat MCH-1, sequence (P97639 whole entry): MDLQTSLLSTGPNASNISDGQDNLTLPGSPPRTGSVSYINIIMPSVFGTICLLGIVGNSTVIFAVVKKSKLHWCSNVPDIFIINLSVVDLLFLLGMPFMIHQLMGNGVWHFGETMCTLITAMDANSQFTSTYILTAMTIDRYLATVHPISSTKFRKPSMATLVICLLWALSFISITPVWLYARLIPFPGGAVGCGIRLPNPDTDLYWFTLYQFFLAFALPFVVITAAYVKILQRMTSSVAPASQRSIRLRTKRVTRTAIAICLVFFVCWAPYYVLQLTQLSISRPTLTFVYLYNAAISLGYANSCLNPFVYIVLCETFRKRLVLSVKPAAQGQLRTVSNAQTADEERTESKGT
As to `CCOC(=O)c1[nH]c2ccc(OC)cc2c1CN1CCC(c2cccc(NC(=O)C(C)C)c2)CC1` [Example 453, ETHYL 3-({4-[3-(ISOBUTYRYLAMINO)PHENYL]-1-PIPERIDINYL}METHYL)-5-METHOXY-1H-INDOLE-2-CARBOXYLATE], the Ki was determined as 195 nM.
The figure for `CC(C)C(=O)Nc1cccc(C2CCN(Cc3c[nH]c4ccc(F)cc34)CC2)c1` [Example 454] is 772 nM.
Take `CCC(=O)Nc1cccc(C2CCN(Cc3cn(-c4ccc(Cl)cc4)c4ccccc34)CC2)c1` [Example 455]: the Ki worked out at 10.6 nM.
In the case of `CCC(=O)Nc1cccc(C2CCN(Cc3cn(-c4cccc(Cl)c4)c4ccccc34)CC2)c1` [Example 456], the Ki is 28 nM.
The figure for `O=C(Nc1cccc(C2CCN(Cc3cn(-c4ccccc4Cl)c4ccccc34)CC2)c1)C1CC1` [Example 457] is 27.4 nM; for `CC(C)C(=O)Nc1cccc(C2CCN(Cc3cn(-c4cccc(Cl)c4)c4ccccc34)CC2)c1` [Example 458] it is 15.3 nM; for `CC(C)C(=O)Nc1cccc(C2CCN(Cc3cn(-c4ccc(Cl)cc4)c4ccccc34)CC2)c1` [Example 459] it is 10.4 nM.
As to `CC(C)C(=O)Nc1cccc(C2CCN(Cc3cn(-c4ccccc4Cl)c4ccccc34)CC2)c1` [Example 460], the Ki was found to be 9.1 nM.
On to `CCC(=O)Nc1cccc(C2CCN(Cc3cn(-c4ccccc4Cl)c4ccccc34)CC2)c1` [Example 461], for which the Ki is 35.6 nM.
The same measure for `O=C(Nc1cccc(C2CCN(Cc3cn(-c4ccc(Cl)cc4)c4ccccc34)CC2)c1)C1CC1` [Example 462]: 12.4 nM; for `O=C(Nc1cccc(C2CCN(Cc3cn(-c4cccc(Cl)c4)c4ccccc34)CC2)c1)C1CC1` [Example 463]: 17.2 nM; for `CCC(=O)Nc1cccc(C2CCN(Cc3cn(-c4ccccc4)c4ccccc34)CC2)c1` [Example 464]: 84.1 nM.
Turning to `O=C(Nc1cccc(C2CCN(Cc3cn(-c4ccccc4)c4ccccc34)CC2)c1)C1CC1` [Example 465], the Ki amounted to 10.7 nM.
Consider `CCC(=O)Nc1cccc(C2CCN(Cc3c[nH]c4cc(F)ccc34)CC2)c1` [Example 468], for which the inhibition constant Ki worked out at 912 nM.
The same measure for `O=C(Nc1cccc(C2CCN(Cc3c[nH]c4cc(F)ccc34)CC2)c1)C1CC1` [Example 469]: 479 nM; for `CC(C)C(=O)Nc1cccc(C2CCN(Cc3c[nH]c4cc(F)ccc34)CC2)c1` [Example 470]: 654 nM; for `CC(C)C(=O)Nc1cccc(C2CCN(Cc3cn(-c4ccc(F)cc4)c4cc(Cl)ccc34)CC2)c1` [Example 471]: 4.3 nM.
The figure for `CCC(=O)Nc1cccc(C2CCN(Cc3cn(-c4ccccc4F)c4cc(Cl)ccc34)CC2)c1` [Example 472] is 12.2 nM; for `O=C(Nc1cccc(C2CCN(Cc3cn(-c4ccccc4F)c4cc(Cl)ccc34)CC2)c1)C1CC1` [Example 473] it is 11.3 nM.
The figure for `CC(C)C(=O)Nc1cccc(C2CCN(Cc3cn(-c4ccccc4F)c4cc(Cl)ccc34)CC2)c1` [Example 474] is 13.3 nM; for `CCC(=O)Nc1cccc(C2CCN(Cc3cn(-c4ccc(Cl)cc4)c4cc(Cl)ccc34)CC2)c1` [Example 475] it is 12.4 nM.
As for `O=C(Nc1cccc(C2CCN(Cc3cn(-c4ccc(Cl)cc4)c4cc(Cl)ccc34)CC2)c1)C1CC1` [Example 476], the Ki is 12.7 nM.
The same measure for `CC(C)C(=O)Nc1cccc(C2CCN(Cc3cn(-c4ccc(Cl)cc4)c4cc(Cl)ccc34)CC2)c1` [Example 477]: 14.9 nM.
The same measure for `CCC(=O)Nc1cccc(C2CCN(Cc3cn(-c4cccc(Cl)c4)c4cc(Cl)ccc34)CC2)c1` [Example 478]: 11.7 nM; for `O=C(Nc1cccc(C2CCN(Cc3cn(-c4cccc(Cl)c4)c4cc(Cl)ccc34)CC2)c1)C1CC1` [Example 479]: 8.1 nM.
As for `CC(C)C(=O)Nc1cccc(C2CCN(Cc3cn(-c4cccc(Cl)c4)c4cc(Cl)ccc34)CC2)c1` [Example 480], the Ki turned out to be 9 nM.
The figure for `O=C(Nc1cccc(C2CCN(Cc3c[nH]c4ccc(F)cc34)CC2)c1)C1CC1` [Example 481] is 664 nM; for `Cc1ccc2c(CN3CCC(c4cccc(NC(=O)C(C)C)c4)CC3)c[nH]c2c1` [Example 495] it is 95.1 nM.
Consider `CC(C)C(=O)Nc1cccc(C2CCN(Cc3c[nH]c4cc(OCc5ccccc5)ccc34)CC2)c1` [Example 496], for which the Ki was determined as 288 nM.
The same measure for `COc1ccc2c(CN3CCC(c4cccc(NC(=O)C(C)C)c4)CC3)c[nH]c2c1` [Example 497]: 97.7 nM.
The figure for `COC(=O)c1ccc2c(CN3CCC(c4cccc(NC(=O)C(C)C)c4)CC3)c[nH]c2c1` [Example 498, METHYL 3-({4-[3-(ISOBUTYRYLAMINO)PHENYL]-1-PIPERIDINYL}METHYL)-1H-INDOLE-6-CARBOXYLATE] is 52.2 nM; for `CC(C)C(=O)Nc1cccc(C2CCN(Cc3c[nH]c4cc(C(F)(F)F)ccc34)CC2)c1` [Example 499] it is 11.9 nM; for `CC(C)C(=O)Nc1cccc(C2CCN(Cc3cn(-c4cccnc4)c4ccccc34)CC2)c1` [Example 500] it is 29.4 nM.
In the case of `CC(C)C(=O)Nc1cccc(C2CCN(Cc3cn(-c4ccccn4)c4ccccc34)CC2)c1` [Example 501], the Ki came to 22.1 nM.
On to `CC(C)C(=O)Nc1cccc(C2CCN(Cc3cn(-c4ccccc4)c4cc(F)ccc34)CC2)c1` [Example 502], for which the Ki was determined as 4.6 nM.
Consider `CC(C)C(=O)Nc1cccc(C2CCN(Cc3cn(-c4ccccc4)c4cc(Cl)ccc34)CC2)c1` [Example 503], for which the Ki came to 6 nM.
As for `CC(C)C(=O)Nc1cccc(C2CCN(Cc3cn(-c4ccccc4)c4cc(OCc5ccccc5)ccc34)CC2)c1` [Example 504], the Ki stood at 22.5 nM.
The figure for `Cc1ccc2c(CN3CCC(c4cccc(NC(=O)C(C)C)c4)CC3)cn(-c3ccccc3)c2c1` [Example 505] is 6.5 nM.
Consider `COC(=O)c1ccc2c(CN3CCC(c4cccc(NC(=O)C(C)C)c4)CC3)cn(-c3ccccc3)c2c1` [Example 506, METHYL 3-({4-[3-(ISOBUTYRYLAMINO)PHENYL]-1-PIPERIDINYL}METHYL)-1-PHENYL-1H-INDOLE-6-CARBOXYLATE], for which the Ki amounted to 2.5 nM.
The figure for `CC(C)C(=O)Nc1cccc(C2CCN(Cc3c[nH]c4cc([N+](=O)[O-])ccc34)CC2)c1` [Example 507] is 57.9 nM; for `CC(C)C(=O)Nc1cccc(C2CCN(Cc3cn(-c4ccccc4)c4cc(C(F)(F)F)ccc34)CC2)c1` [Example 508] it is 8.5 nM; for `Cc1cccc2c(CN3CCC(c4cccc(NC(=O)C(C)C)c4)CC3)cn(-c3ccccc3)c12` [Example 509] it is 24.3 nM.
Turning to `COc1cccc2c(CN3CCC(c4cccc(NC(=O)C(C)C)c4)CC3)c[nH]c12` [Example 510], the inhibition constant Ki is 305 nM.
As to `COc1cccc2c(CN3CCC(c4cccc(NC(=O)C(C)C)c4)CC3)cn(-c3ccccc3)c12` [Example 511], the Ki came out at 6 nM.
The same measure for `CC(C)C(=O)Nc1cccc(C2CCN(Cc3cn(-c4ccccc4)c4c(Cl)cccc34)CC2)c1` [Example 512]: 42.7 nM.
For the compound `CC(C)C(=O)Nc1cccc(C2CCN(Cc3c[nH]c4c([N+](=O)[O-])cccc34)CC2)c1` [Example 513], the Ki is 179 nM.
`O=C(Nc1cccc(C2CCN(Cc3c[nH]c4c([N+](=O)[O-])cccc34)CC2)c1)C1CC1` [Example 514]: the Ki is 151 nM.
As to `CCC(=O)Nc1cccc(C2CCN(Cc3c[nH]c4c([N+](=O)[O-])cccc34)CC2)c1` [Example 515], the inhibitory constant (Ki) came out at 296 nM.
For `CC(C)C(=O)Nc1cccc(C2CCN(Cc3c[nH]c4c(-c5ccccc5F)cccc34)CC2)c1` [Example 516], the Ki came to 90.9 nM.
The figure for `CC(C)C(=O)Nc1cccc(C2CCN(Cc3c[nH]c4c(-c5ccc6ccccc6c5)cccc34)CC2)c1` [Example 517] is 287 nM; for `CCc1ccc(-c2cccc3c(CN4CCC(c5cccc(NC(=O)C(C)C)c5)CC4)c[nH]c23)cc1` [Example 518] it is 226 nM; for `Cc1ccccc1-c1ccc2c(CN3CCC(c4cccc(NC(=O)C(C)C)c4)CC3)c[nH]c2c1` [Example 519] it is 80.9 nM.
Take `CC(C)C(=O)Nc1cccc(C2CCN(Cc3c[nH]c4c(-c5cccc(Cl)c5)cccc34)CC2)c1` [Example 520]: the Ki was 135 nM.
`CC(C)C(=O)Nc1cccc(C2CCN(Cc3c[nH]c4c(-c5cccc([N+](=O)[O-])c5)cccc34)CC2)c1` [Example 521]: the Ki was 27 nM.
The same measure for `CC(=O)c1ccc(-c2cccc3c(CN4CCC(c5cccc(NC(=O)C(C)C)c5)CC4)c[nH]c23)cc1` [Example 522]: 247 nM.
The figure for `CCc1ccc(-c2ccc3c(CN4CCC(c5cccc(NC(=O)C(C)C)c5)CC4)c[nH]c3c2)cc1` [Example 523] is 54.8 nM; for `Cc1ccccc1-c1cccc2c(CN3CCC(c4cccc(NC(=O)C(C)C)c4)CC3)c[nH]c12` [Example 524] it is 199 nM.
`CC(C)C(=O)Nc1cccc(C2CCN(Cc3c[nH]c4cc(-c5ccccc5F)ccc34)CC2)c1` [Example 525]: the Ki worked out at 91.4 nM.
Take `CC(C)C(=O)Nc1cccc(C2CCN(Cc3c[nH]c4ccc(Br)cc34)CC2)c1` [Example 526]: the Ki was 411 nM.
In the case of `Cc1ccc(Oc2ccc3[nH]cc(CN4CCC(c5cccc(NC(=O)C(C)C)c5)CC4)c3c2)cc1` [Example 527], the inhibitory constant (Ki) came out at 226 nM.
As to `CC(C)C(=O)Nc1cccc(C2CCN(CCCCCCC(=O)c3ccccc3)CC2)c1` [Example 528], the inhibition constant (Ki) turned out to be 115 nM.
The same measure for `CC(C)C(=O)Nc1cccc(C2CCN(CCCCCC(=O)c3ccccc3)CC2)c1` [Example 529]: 42.4 nM; for `CCC(=O)Nc1cccc(C2CCN(CCCC(=O)c3ccc(OC)cc3)CC2)c1` [Example 531]: 105 nM.
For `CCC(=O)Nc1cccc(C2CCN(CCCC(=O)c3ccc(Cl)cc3)CC2)c1` [Example 532], the Ki stood at 8.7 nM.
As to `CCC(=O)Nc1cccc(C2CCN(CCCC(=O)c3ccc(Br)cc3)CC2)c1` [Example 533], the Ki came to 10.6 nM.
The figure for `CCC(=O)Nc1cccc(C2CCN(CCCC(=O)c3ccc(C(C)(C)C)cc3)CC2)c1` [Example 534] is 155 nM.

The record behind these values is US6727264B1 (Synaptic Pharmaceutical Corporation, priority 2001, dated 2004).
